What was measured:
[1] = system: orthotopic human breast MDA-MB-231-RFP primary tumor; assay: Whole-body NIR fluorescence imaging of accumulation in orthotopic MDA-MB-231-RFP tumor; assay type: in vivo, CD-1 nude female mice; conditions: for accumulation in the tumor (NIR fluorescence): 15 mg/kg i.v.
Method: RFP fluorescence, in units of photons/sec, was detected using 525/50 nm and 612/75 nm filter sets for excitation and emission, respectively, with one second integration time. NIR fluorescence of the different photosensitizers, in units of photons/sec, was detected using 680/30 nm and 847/75 nm filter sets for excitation and emission, respectively, at an integration time of five seconds. Background fluorescence for all quantitative analyses was calculated by recording the average fluorescence (photons/sec)/cm^2 from three animals in three different areas around and within the tumor of untreated animals provided with a similar diet for three days before measurements. Drug accumulation was determined following i.v. administration of molar equivalents of the photosensitizer to the tail vein of mice fed with a chlorophyll-free, purified diet for three days before administration (in order to reduce skin and food autofluorescence). Before imaging, mice were anesthetized by intraperitoneum injection of a 30 μl mixture of 85:15 ketamine:xylazine.
In order to study the accumulation of the photosensitizer in primary mammary tumors, the MDA-MB-231-RFP cells (4×10^6) were implanted orthotopicaly in the mammary pad of the mice. Tumors developed to the wanted size, bigger than 1 cm^3, within 3-4 weeks.
Tumor imaging main filter set comprised: excitation filter 500-550 nm, emission filter 575-650 nm; Background filter set for subtraction the tissue auto fluorescence: excitation filter 460-490 nm, emission filter 575-650 nm. Photosensitizer imaging main filter set: excitation filter 665-695 nm, emission filter 810-875 nm.
Images were taken at these time points post drug injection: 15 min, 1, 2, 3, 4.5, 6, 7.5, 9, 24 hr, 2, 3, 4, 5, 6, 7 days.

[2] = system: large MDA-MB-231-RFP tumors; assay: Biodistribution and pharmacokinetics (fluorescence of tissue extracts) in MDA-MB-231-RFP tumor-bearing mice; assay type: in vivo, CD-1 nude female mice
Method: Mammary fat pads (left, bottom nipple) of female mice were inoculated with harvested MDA-MB-231-RFP human breast cancer cells (4×10^6 in […] saline). Tumors were classified as ‘small’ (˜100 mm^3) at one to two weeks from time of cell injection, or ‘large’ after three to four weeks (necrotic tumors, 250 to 500 mm^3). To avoid tumor burden, mice were sacrificed (cervical dislocation) when tumor size reached 10% of body weight or at 90 days post-implantation. External caliper measurements, length (L), width (W) and depth (D) were used to calculate in vivo tumor volume according to the formula: V=L/2·W/2·D/2·π·4/3.
Anesthetized mice were i.v. injected (tail vein) with the different photosensitizer (pigment) conjugates (control group: untreated). The mice were sacrificed at indicated time points and samples of the indicated organs and tissues (blood, tumor, intestine, liver, spleen, kidneys, testies, heart, lung, brain, skin, muscle and fat) were placed in pre-weighted vials and immediately frozen and stored at −20° in the dark until analyzed. Three methods were used for sample preparation: (1) Each sample was thawed and homogenized in DDW (1:10 w/v). Aliquots of the homogenate (500 μl) were lyophilized in Eppendorf test tubes. Then, 60 μl of HNO3 (70%, TraceSelect, Fluka) were added to each dry sample, incubated for 1 h at 90° C. and diluted with DDW to 3 ml. (2) Each sample was diluted (1:2 w/v) in HNO3 (70%, TraceSelect, Fluka). The samples were sonicated for 30 min in boiled water, and left for at least 48 h at room temperature. (3) Applied for assessment of non-metalated conjugates. Each sample was thawed and homogenized in methanol (100 mg tissue/ml) and extracted the next morning by centrifugation (13,000×g, five minutes) at room temperature. In methods (1) and (2), 140 μl from each sample was added to 3.36 ml DDW to give total volume of 3.5 ml and incubated for 1 h at 90° C. Pd concentrations were determined by ICP-MS. According to method (3), the supernatants were diluted in methanol by a factor of two and the drug concentration was determined by fluorescence measurements (Varian-Cary Eclipse spectrofluorimeter, Palo Alto, Calif., USA) at 750 nm (peak values). Drug concentrations were interpolated from a fluorescence calibration curve, based on predetermined drug concentrations using absorption spectroscopy.

MLS ovarian carcinoma = assay: Fluorescence imaging, MLS ovarian carcinoma; assay type: in vivo, mice; conditions: 8 mg/kg i.v.
Method: Conjugate 26 (8 mg/kg) was i.v. injected into animals bearing MLS ovarian carcinoma. Images on IVIS were taken after 8 and 14 hours.

[3] = system: human mammary cancer MDA-MB-231-RFP xenografts; assay: In vivo PDT of MDA-MB-231-RFP xenografts; set-up: species or system CD-1 nude male mice; conditions: 7.5 mg/kg i.v.
Method: For the PDT experiments, MDA-MB-231 RFP cells (4×10^6) were implanted subcutaneously on the backs of the mice and tumors developed to the treatment size (6-8 mm) within 2-3 weeks.
The tumors were illuminated for 10 min. The drug light interval used was 8 hr post drug injection. Transdermal illumination through the mouse skin with 755 nm diode laser at 100 mW/cm^2 (CeramOptec, Germany) was used. After the treatment, the mice were returned to the cage. […] In the light control group, the mice were illuminated for 10 min with 100 mW/cm^2. During the first 2 days post PDT, as needed, the mice received analgesia (2.5 mg/kg Flunexin daily) and 3 days Oxycode in the drinking water. The end point of animal survival is when the size of the tumor reaches 10% of animal weight. Mice are sacrificed at this time (up to 90 days) by cervical dislocation.
FIGS. 35A-35B show two representative examples to local response of human MDA-MB-231-RFP to PDT. […] 35A—Photographs taken from day 0 (before treatment) and after treatment at 1, 4, 7, 12 and 90 days. […] 35B—In vivo whole-body red fluorescence imaging of CD-1 nude male mice bearing MDA-MB-231-RFP orthotopic tumor.

CT26luc colon cancer = assay: In vivo PDT (VTP) of CT26luc colon cancer; set-up: species or system CD-1 nude male mice; conditions: i.v. injected and illuminated after 8 hours
Method: CD-1 nude male mice bearing the different tumor xenografts were anesthetized and 24 (5-24 mg/kg body weight) or 8 (9 mg/kg body weight) were i.v. injected via the tail vein. The tumors were trans-cutaneously illuminated after 3.5, 6, 8, 12 and 24 hours for 5-30 min at light doses of 30-360 J/cm^2. Intensity of illumination: 100-200 mW/cm^2. After treatment, the mice were returned to the cage. The mice were considered cured if tumor free for 90 days after treatment. Mice were euthanized when the tumor diameter reached 15 mm. […] (5) Mixture of 8 and cycloRGDfK: the mice were i.v. injected with mixture of 8 with cycloRGDfK and illuminated after indicated time point. (6) cycloRGDfK alone: the mice were i.v. injected with cycloRGDfK and illuminated after indicated time point. Images were taken at indicated time post PDT.
FIGS. 32A-32F show the therapeutic results of applying 15 mg/kg, 10 min illumination (60 J/cm^2), 8 hours post injection of conjugate 24 to mice bearing CT26luc tumors (bolded protocol in Table 5). 32A—conjugate 24 was i.v. injected 15 mg/kg, 10 min illumination (60 J/cm^2) 8 hours post injection; 32B—overlaid images taken after i.p. injection of luciferin to the mouse described in 32A, using the IVIS system. The first image is black and white, which gives the photograph of the animal. The second image is color overlay of the emitted photon data. […]

[4] = Solubilization for in vitro experiments (water solubility); assay type: physicochemical
Method: Compound 24 was dissolved in 100% DMSO before use and diluted in saline to a final DMSO concentration of 5% v/v.

MDA-MB-231 breast tumor = assay: Biodistribution (Cu by ICP-MS) in mice bearing MDA-MB-231 breast tumor; assay type: in vivo, female CD-1 nude mice
Method: The biodistribution of Cu-conjugate 15 was determined in female CD-1 nude mice of 6-8 weeks-old, weighing 20-23 g and bearing 6-9-mm^3 tumors of human adenocarcinoma cells obtained from breast tissue (MDA-MB-231 cells). The conjugate (30 mg/ml in 5% DMSO/PBS) was injected to the tail vein, and the animals were sacrificed in selected time points. Cu concentrations were determined by ICP-MS as described in Material and Methods.

H5V endothelial cells = assay: Phototoxicity assay (Neutral Red cell viability after illumination); assay type: cell-based, mouse
Method: The light source for in vitro studies was home-built 100-W halogen lamp equipped with a high-pass filter (>650 nm, Safelight filter 1A Eastman Kodak Co., Rochester, N.Y., USA) and a 4-cm water filter. The lamp was used to illuminate (20 mW/cm^2/10 min (12 J/cm^2)) the culture plates from the bottom at room temperature in a dark room.
To determine the pigment photodynamic efficacy in vitro under standard conditions, cells were cultured in 96-well plates and preincubated for 15 or 90 min at 37° C. or 4° C., according to the indicated experiment protocol, with 0-25 μM conjugated or non-conjugated photosensitizer in different media conditions (culture medium DMEM/F12; 10% FCS in medium or 10 μM BSA in medium) in the absence or presence of excess free peptide (100 fold up to 1 mM). The cells were washed and illuminated (20 mW/cm^2 for 10 min). Plates were placed back in the culture incubator for 24 h. Cell survival was determined using Neutral Red cell viability assay. Cell survival was calculated as the percent of the dye accumulated in the untreated controls. […] Three kinds of controls were used: (i) light control: cells illuminated in the absence of pigments; (ii) dark control: cells treated with pigments but kept in the dark; and (iii) untreated cells that were kept in the dark.
Following photosensitization and a 24-h incubation period (37° C.), cell survival was determined by Neutral Red (Fluka Chemie, Buchs, Switzerland) accumulation. After subtraction of assay blanks, net optical density (570 nm) was computed as the average value of triplicates determinations. Cell survival was calculated as the percent of the dye accumulated in the untreated controls.
H5V cells were incubated for 90 min at 37° C. with 0-25 μM of conjugate 23 or compound 10 in different media conditions, illuminated and their survival was determined using Neutral Red viability assay as described in Materials and Methods.
Targeted phototoxicity is defined as one inhibited by the free ligand. Thus, further experiments attempted to block phototoxicity by administration of the free cycloRGDfK, which competes for the cellular binding of conjugate 23. H5V cells were incubated for 90 min at 37° C. with 0-25 μM of compound 10 or conjugate 23 in different media (10% FCS in medium or 10 μM BSA in medium) in the absence or presence of free excess cycloRGDfK (100-fold up to 1 mM). The cells were illuminated and cell survival was determined using Neutral Red viability assay, as described above.
In order to test the endocytosis theory and since the endocytic process is time- and temperature-dependent, H5V cells were incubated at 37° C. and 4° C. for 15 min with 0-20 μM of conjugate 23 in medium containing 10% FCS, in the presence or absence of excess cycloRGDfK (100-fold up to 1 mM). Cells were illuminated and their survival was determined as described above.
The phototoxicity of conjugate 24 was determined by monitoring the survival of cultured H5V endothelial cells following PDT. H5V cells were incubated for 2 hours at 37° C. with 0-25 μM conjugate 24 in culture medium DMEM/F12 with 10% FCS. The cells were illuminated and their survival was determined as described above.
Cells were incubated for 90 min at 37° C. in the presence of 0-20 μM conjugate 11 or compound 8 in 10 μM BSA in medium, illuminated and their survival was determined as described above.

With “3^1-oxo-15-methoxycarbonylmethyl-Rhodobacteriochlorin 13^1-(2-sulfoethyl)amide potassium salt [Compound 25, reference compound]” the specific tumor fluorescence ([1]; 9 mg/kg i.v., large necrotic tumors, one hour post injection) was “No specific tumor fluorescence” and the “accumulation in the tumor (tissue extracts)” value ([2]; 9 mg/kg i.v.) was “no accumulation of 25 in the tumor at any time longer than one hour post administration”.

For “3^1-oxo-15-methoxycarbonylmethyl-Rhodobacteriochlorin 13^1-(2-sulfoethyl)amide-17^3-(GRGDSP)amide potassium salt [Conjugate 26]”, the “accumulation (fluorescence)” value (MLS ovarian carcinoma; 8 hours) was “did not present accumulation” and the “accumulation (fluorescence)” value (MLS ovarian carcinoma; 14 hours) was “a high level of fluorescence was observed in tumor and liver areas”.

For “3^1-oxo-15-methoxycarbonylmethyl-Rhodobacteriochlorin 13^1-(2-sulfoethyl)amide-17^3-(cycloRGDfK)amide potassium salt [Conjugate 13]”, the “accumulation in the tumor (NIR fluorescence)” value ([1]; 15 min to 24 hr post injection, tumor size ~1 cm^3, potassium salt) was “no specific accumulation in the tumor during the first 24 hours”, the “accumulation in the tumor (NIR fluorescence)” value ([1]; day 1 to 6 post injection) was “reaching peak concentration specifically in the tumor from day 2 post injection” and the “whole-body red fluorescence (tumor) signal after PDT” value ([3]; 90 days after treatment) was “No signal was detected 90 days after treatment”. The “local tumor response to PDT” value ([3]; illuminated 8 h later, 755 nm, 100 mW/cm^2, 10 min) was “after 90 days the wound healed and the animal was cured”, the “peak concentration in the tumors” value ([2]; 15 mg/kg i.v.) was 11 μg drug/gr tumor tissue and the “peak tumor level as share of the initial drug dose” value ([2]; 15 mg/kg i.v.) was “about 3.0%”. For the same compound, the “time of peak concentrations in the tumors” value ([2]; 15 mg/kg i.v.) was “eight hours post-injection”, the “time to clear to nearly background levels in normal tissues” value ([2]; 15 mg/kg i.v.) was “less than 72 hours” and the “time of peak levels in the normal tissues examined” value ([2]; 15 mg/kg i.v., blood, liver, kidney) was “less than five minutes post-injection”.

In the case of `N=C(N)NCCC[C@@H]1NC(=O)[C@H](CCCCN)NC(=O)[C@@H](Cc2ccccc2)NC(=O)[C@H](CC(=O)O)NC(=O)CNC1=O` [cycloRGDfK], the “PDT effect of controls” value (CT26luc colon cancer) was “no PDT effect” and the water solubility [4] was “Water insoluble”.

With “Copper(II) 3^1-oxo-15-methoxycarbonylmethyl-Rhodobacteriochlorin 13^1-(2-sulfoethyl)amide-17^3-(cycloRGDfK)amide potassium salt [Conjugate 15]” the “tumor intensity in comparison with surrounding normal tissue” value (MDA-MB-231 breast tumor; at peak) was “about 3 fold” and the “time of peak accumulation in tumor after injection” value (MDA-MB-231 breast tumor; i.v. tail vein) was 8 to 12 h.

Work on “Palladium 3-oxo-15-methoxycarbonylmethyl-Rhodobacteriochlorin-13^1-(2,3-dihydroxypropyl)amide potassium salt [Compound 10]” yielded an LD50 (H5V endothelial cells; 10 μM BSA in medium (90 min, 37° C.)) of 3.5 to 5 µM, an LD50 (H5V endothelial cells; 10 μM BSA in medium (90 min, 37° C.), with free peptide in excess (cycloRGDfK)) of 5 µM and an LD50 (H5V endothelial cells; 10% FCS (90 min, 37° C.)) of 5 to 7 µM. The LD50 (H5V endothelial cells; 10% FCS (90 min, 37° C.), with free peptide in excess (cycloRGDfK)) was 5 µM, the “influence of excess cycloRGDfK on phototoxic effects” value (H5V endothelial cells; 90 min, 37° C., 100-fold up to 1 mM) was “not influenced by the presence of excess cycloRGDfK” and the LD50 (H5V endothelial cells; culture medium (90 min, 37° C.)) was 7 µM. For the same compound, the phototoxic effects (H5V endothelial cells; different media, 90 min, 37° C., 0-25 μM) was “light- and drug concentration-dependent” and the water solubility [4] was “Water insoluble”.
